1 molecule from paper PMC4623604, “Discovery of Small Molecules that Inhibit the Disordered Protein, p27^Kip1” (Scientific Reports, 2015) can be followed below.

Molecules are shown by their SMILES.

One experiment deals with T1, p27-D2-FL/Cdk2/cyclin A (Homo sapiens, UniProt P46527, C99S/R93C).
T1 construct: p27-D2 (residues 58-105 of human p27); 6xHis (N, cleaved yes); made in house; host or cells: E. coli for p27-D2
Nature of the experiment: Fluorescence anisotropy displacement of p27-D2-FL from Cdk2/cyclin A. Type of experiment: binding. The following applies: 20 nM p27-D2-FL, 300 nM Cdk2/cyclin A, SJ403 0-3 mM; read-out: IC50, reduction of fluorescence anisotropy of p27-D2-FL (displacement from Cdk2/cyclin A). The text has this: We used the Group 2 molecule, SJ403 (Suppl. Table 1b), to test our hypothesis that molecules that bind to p27 can alter its Cdk regulatory function. […] We first used fluorescence anisotropy (FA) to monitor displacement of a single-cysteine (Cys) mutant of p27-D2, with arginine 93 mutated to Cys (R93C) and labeled with Alexa Fluor 488 (p27-D2-FL), from Cdk2/cyclin A by SJ403.
The p27-D2-C99S-R93C mutant was conjugated with Alexa Fluor488-C5-Maleimide (Life Technologies, p27-D2-FL) in buffer containing 20 mM Na phosphate, pH7.3, 20 mM NaCl according to the manufacturer’s protocol. The conjugated protein was further purified by reverse-phase high performance liquid chromatography (HPLC) using a C4 column (Vydac) and 0.1% trifluoroacetic acid-containing water/acetonitrile solvent system. Lyophilized HPLC fractions were resuspended in buffer containing 20 mM Na phosphate, pH 7, 200 mM NaCl, 3.5 mM TCEP. Fluorescence anisotropy measurements were performed at 25 °C on a Horiba Fluorolog 3 spectrofluorometer. Briefly, p27-D2-FL (20 nM) was mixed with Cdk2/Cyclin A (300 nM) and added to the required amount of lyophilized compound (SJ403). All samples have been incubated overnight in the dark at 4 °C prior to fluorescence measurements. Fluorescence anisotropy binding data was analyzed using KaleidaGraph. […]

In a further experiment the target is T2, Cdk2/cyclin A (Homo sapiens, UniProt P24941).
T2 construct: Full length human Cdk2, active Cdk2 (phosphorylated at threonine 160); truncated human cyclin A (residues 173–432); made in house
Nature of the experiment: Cdk2/cyclin A kinase activity assay (Histone H1 substrate). To be noted: SJ403 alone, 10 μM to 3 mM, 200 pM Cdk2/cyclin A. Type of experiment: biochemical. The method, then: Cdk2/Cyclin A (200 pM) was mixed with Histone H1 (15 μM; EMD Millipore), p27-D2 (200 nM) and varied amounts of lyophilized SJ403 and incubated overnight at 4 °C. The effect of the SJ403 compound on Cdk2 activity was determined by performing similar experiments in the absence of p27-D2. Subsequently, ATP (50 μM total concentration, of which 6 μCi γ ^32P-ATP (PerkinElmer, Inc)) was added to each reaction and further incubated for 35 minutes at 30 °C. […] The sample buffer contained 20 mM HEPES pH 7.3, 25 mM sodium β-glycerolphosphate, 15 mM MgCl2, 16 mM EGTA, 0.5 mM Na3VO4 and 10 mM DTT. The reactions were quenched by addition of SDS-gel loading buffer (5 μL) and then analyzed by SDS-PAGE (10 μL). The gels were dried at 70 °C under vacuum and a phosphoimager (GE Healthcare, Piscataway, NJ) was used to quantify the ^32P-Histone H1 bands. IC50 values were determined by curve fitting using KaleidaGraph software. Experiments were performed in triplicate and mean IC50 and standard deviations of the mean values are reported.

The next experiment has as its target T3, p27-D2/Cdk2/cyclin A (Homo sapiens, UniProt P46527).
T3 construct: p27-D2 (residues 58-105 of human p27); 6xHis (N, cleaved yes); made in house; host or cells: E. coli for p27-D2
Nature of the experiment: Cdk2/cyclin A kinase activity assay in the presence of p27-D2 (restoration of activity). The format is biochemical. The procedure: Figure 6 The small molecule SJ403 displaces p27-D2 from Cdk2/cyclin A and partially restores Cdk2 kinase activity. Analysis of Cdk2 kinase activity [within the Cdk2/cyclin A complex (200 pM) using Histone H1 as the substrate] in the presence of p27-D2 (200 nM) and varied concentrations of SJ403 (from 10 μM to 3 mM) (a) and varied concentrations of SJ403 alone (b). Cdk2 is partially active under the starting conditions in (a) and activity is enhanced through addition of SJ403. In the absence of p27-D2 (b), addition of SJ403 is associated with Cdk2 inhibition. All experiments were performed in triplicate and average values and the standard deviations of the means are shown.
Cdk2/Cyclin A (200 pM) was mixed with Histone H1 (15 μM; EMD Millipore), p27-D2 (200 nM) and varied amounts of lyophilized SJ403 and incubated overnight at 4 °C. The effect of the SJ403 compound on Cdk2 activity was determined by performing similar experiments in the absence of p27-D2. […] The reactions were quenched by addition of SDS-gel loading buffer (5 μL) and then analyzed by SDS-PAGE (10 μL). The gels were dried at 70 °C under vacuum and a phosphoimager (GE Healthcare, Piscataway, NJ) was used to quantify the ^32P-Histone H1 bands. IC50 values were determined by curve fitting using KaleidaGraph software. […]

T3 sequence (P46527 58-105): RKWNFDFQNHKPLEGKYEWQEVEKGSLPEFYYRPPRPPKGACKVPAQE
T1 sequence (P46527 58-105 R93C/C99S): as the sequence (P46527 58-105) above, with R36C, C42S counted along it

For `CCn1c(C)c(C)n2c3c(=O)n(C)c(=O)n(C)c3nc12` [SJ403], the IC50 on p27-D2-FL/Cdk2/cyclin A was 475 ± 67 µM. For the same molecule, on Cdk2/cyclin A, the “effect on Cdk2/cyclin A activity in the absence of p27-D2” value is given as “substantially inhibited”. The “Cdk2 kinase activity after titration of SJ403 (of full kinase activity)” value at p27-D2/Cdk2/cyclin A (200 nM p27-D2, 200 pM Cdk2/cyclin A, SJ403 10 μM to 3 mM, start 13%) was ~ 20%. In addition, the “increase in Cdk2 kinase activity” value on p27-D2/Cdk2/cyclin A (from 13% to ~20% of full activity, 200 nM p27-D2) is given as over 50%.
